Columns and labels:
CDK5 = target: T1, CDK5 (Homo sapiens, UniProt Q00535); assay: Binding assay (FRET, LanthaScreen Eu, Tracer236) for CDK5; details: for IC50: read-out: CDK5 IC50 (enzyme binding assay)
T1 construct: His; purchased Invitrogen PR8543B
Protocol: (§1) Inhibition activity of compound to CDK7 kinase was tested in a binding assay which was applied to the FRET (fluorescence resonance energy transfer) principle from the europium (Eu) donor fluorophore to the acceptor fluorophore on the kinase tracer. Test compounds were made to 1.125 mM of compound solution, and then this compound solution 4-fold serial diluted in 8 steps using an automated liquid handler (JANUS™, PerkinElmer). 80 nL/well of each diluted compound solution was added into the 384-well plate (Greiner, Cat #784075) first and 7.5 ul/well of working solution [5 nM of CDK7/CycH/MNAT1 (Invitrogen, Cat #PR6749B), 4 nM of Biotin anti-His Tag Antibody (Invitrogen, Cat #PV6090), and LanthaScreen® Eu-Streptavidin (Invitrogen, Cat #PV6025)] was added. After mixing the solution well, the same volume with the working solution of Tracer236 (Invitrogen, Cat #PV5592) was added into each well in the plate. The plate was incubated for 60 minutes at room temperature and then all the fluorescence were measured using Envision leader (Perkin Elmer, USA) [Laser as excitation light; […] as the first and the second emission filter]. Data was analysed using XL Fit software.
(§2) All of the synthesized compounds were screened in the above-mentioned assay procedure. To identify the inhibition activity of compounds for other CDKs including CDK1 (Invitrogen, Cat #PR4768C), CDK2 (Invitrogen, Cat #PR4448B) and CDK5 (Invitrogen, Cat #PR8543B) were tested using the same protocol under reasonable concentration of Tracer236 and kinases for each assay. The formula for the assay buffer summarized in below table.

CDK2 = target: T2, CDK2 (Homo sapiens, UniProt P24941); assay: Binding assay (FRET, LanthaScreen Eu, Tracer236) for CDK2; details: for IC50: read-out: CDK2 IC50 (enzyme binding assay)
T2 construct: His; purchased Invitrogen PR4448B
Protocol: as §1, §2

CDK1 = target: T3, CDK1 (Homo sapiens, UniProt P06493); assay: Binding assay (FRET, LanthaScreen Eu, Tracer236) for CDK1; details: for IC50: read-out: CDK1 IC50 (enzyme binding assay)
T3 construct: His; purchased Invitrogen PR4768C
T3 sequence (P06493 whole entry): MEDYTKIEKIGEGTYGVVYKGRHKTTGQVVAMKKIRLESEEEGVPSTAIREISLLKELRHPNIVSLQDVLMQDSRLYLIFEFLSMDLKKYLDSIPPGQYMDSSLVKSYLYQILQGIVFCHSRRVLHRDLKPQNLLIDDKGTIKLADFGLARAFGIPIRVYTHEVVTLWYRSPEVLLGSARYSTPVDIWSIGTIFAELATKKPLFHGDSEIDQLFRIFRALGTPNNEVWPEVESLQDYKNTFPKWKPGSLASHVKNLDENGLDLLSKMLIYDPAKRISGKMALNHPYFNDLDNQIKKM
T3 sequence (P14635 whole entry partner): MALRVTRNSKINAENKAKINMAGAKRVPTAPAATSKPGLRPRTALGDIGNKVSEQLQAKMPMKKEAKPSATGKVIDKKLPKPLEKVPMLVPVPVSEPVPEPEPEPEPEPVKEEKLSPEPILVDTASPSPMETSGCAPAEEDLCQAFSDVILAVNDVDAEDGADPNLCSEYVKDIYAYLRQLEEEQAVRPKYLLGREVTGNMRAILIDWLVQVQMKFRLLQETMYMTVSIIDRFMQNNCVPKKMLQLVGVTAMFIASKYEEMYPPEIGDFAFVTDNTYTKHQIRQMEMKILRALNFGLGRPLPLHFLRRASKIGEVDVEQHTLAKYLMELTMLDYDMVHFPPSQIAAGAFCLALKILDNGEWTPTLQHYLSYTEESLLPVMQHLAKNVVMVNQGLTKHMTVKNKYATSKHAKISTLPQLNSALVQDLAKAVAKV
Protocol: as §1, §2

CDK7 protein = target: T4, CDK7 protein (Homo sapiens, UniProt P50613); assay: Western blot assay for CDK7 protein degradation in A2780 cells; type: cell-based; details: 24 hours; for DC50: read-out: Compound concentration that caused 50% CDK7 protein degradation in A2780 cells (DC50);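 as to all read-outs here: A is DC50 up to 100 nM B is 100 to 1000 nM C is above 1000 nM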
T4 construct: To verify endogenous CDK7 protein degradation; endogenous in cells; host or cells: A2780 (ECACC 93112519)
T4 sequence (P50613 whole entry): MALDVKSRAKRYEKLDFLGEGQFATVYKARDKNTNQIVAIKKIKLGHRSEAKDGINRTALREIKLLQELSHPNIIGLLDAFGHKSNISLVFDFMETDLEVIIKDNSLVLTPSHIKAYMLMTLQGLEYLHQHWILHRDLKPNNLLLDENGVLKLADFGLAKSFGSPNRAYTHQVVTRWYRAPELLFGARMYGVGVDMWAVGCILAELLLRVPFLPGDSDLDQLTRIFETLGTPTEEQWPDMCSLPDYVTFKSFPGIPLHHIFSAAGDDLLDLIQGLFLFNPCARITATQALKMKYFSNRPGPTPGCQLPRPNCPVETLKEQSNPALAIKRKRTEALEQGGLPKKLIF
Protocol: Human ovarian cancer cell line, A2780 (Cat #93112519) was obtained from ECACC. Cells were grown in RPMI-1640 media (Invitrogen, Cat #22400105) supplemented with 10% FBS (Hyclone, Cat #SH30084.03) and 1% penicillin/streptomycin (Hyclone, Cat #SV30010) and cultured at 37° C., 5% Co2 in a humidified chamber. All cell lines were routinely tested for mycoplasma.
To verify endogenous CDK7 protein degradation upon treatment of CDK7-specific degrader, the western blot assay was conducted a 24 hours' time period. 6×10^5 cells/well of A2780 cells were plated in 6-well plate. After 24 hours, the cells were treated with various concentrations of the compound corresponding range. DMSO solvent without compound served as a control and final DMSO concentration was not to exceed 0.1% of total volume. After 24 hours of incubation at 37° C., 5% Co2 incubator, cells were collected and lysed with 60 ul of lysis buffer. Collected lysates were incubated for 30 min on ice and collect supernatant through centrifugation at 12,000 rpm for 10 min at 4° C. The protein in lysates were quantified with BCA protein quantification kit (Pierce, Cat #23227) following manufacture's protocol. Cell lysates were diluted into 1 ug/ul of concentration with lysis buffer. 20 ug of protein was loaded to each well of 4˜12% Bis-Tris gel (Invitrogen, Cat #NP0336BOX) with MOPS running buffer (Invitrogen, Cat #NP0001). The proteins were transferred from gel to membrane and incubated with primary antibody as followed at 4° C. overnight; CDK7 (CST, Cat #2090S) and β-actin (Santa Cruz, Cat #sc-47778) 1:20,000. The signals were developed and acquired with ImageQuant™ LAS 4000.

CDK7/CycH/MNAT1 = target: T5, CDK7/CycH/MNAT1 (Homo sapiens, UniProt P50613); assay: Binding assay (FRET, LanthaScreen Eu, Tracer236) for CDK7; details: read-out: CDK7 IC50 (enzyme binding assay)
T5 construct: His; purchased Invitrogen PR6749B
T5 sequence (P50613 whole entry): as above
T5 sequence (P51946 whole entry partner): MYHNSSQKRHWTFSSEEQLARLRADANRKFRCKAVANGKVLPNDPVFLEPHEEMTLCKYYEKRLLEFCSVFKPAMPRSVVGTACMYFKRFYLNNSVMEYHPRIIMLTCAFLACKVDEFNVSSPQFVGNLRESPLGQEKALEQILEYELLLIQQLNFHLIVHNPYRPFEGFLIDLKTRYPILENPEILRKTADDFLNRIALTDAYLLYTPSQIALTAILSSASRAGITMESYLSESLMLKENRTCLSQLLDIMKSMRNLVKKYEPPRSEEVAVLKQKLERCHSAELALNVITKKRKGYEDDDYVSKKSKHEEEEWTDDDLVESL
T5 sequence (P51948 whole entry partner): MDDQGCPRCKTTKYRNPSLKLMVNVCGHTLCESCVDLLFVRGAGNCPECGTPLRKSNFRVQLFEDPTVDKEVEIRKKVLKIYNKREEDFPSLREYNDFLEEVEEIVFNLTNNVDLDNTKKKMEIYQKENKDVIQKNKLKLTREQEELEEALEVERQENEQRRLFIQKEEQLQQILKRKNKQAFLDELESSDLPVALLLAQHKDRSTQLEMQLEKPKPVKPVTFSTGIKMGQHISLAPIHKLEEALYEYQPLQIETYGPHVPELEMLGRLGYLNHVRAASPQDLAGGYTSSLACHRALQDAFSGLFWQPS
Protocol: as §1, §2

T1 sequence (Q00535 whole entry): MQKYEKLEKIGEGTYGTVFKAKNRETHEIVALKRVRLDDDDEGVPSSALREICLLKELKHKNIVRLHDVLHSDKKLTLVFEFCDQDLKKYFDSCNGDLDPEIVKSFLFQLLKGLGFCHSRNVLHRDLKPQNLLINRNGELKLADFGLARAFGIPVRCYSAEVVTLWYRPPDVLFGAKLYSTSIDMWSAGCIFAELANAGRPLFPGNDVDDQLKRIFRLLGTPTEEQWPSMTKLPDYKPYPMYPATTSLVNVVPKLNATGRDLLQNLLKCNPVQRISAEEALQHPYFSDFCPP
T1 sequence (Q15078 99-307 partner limits assumed): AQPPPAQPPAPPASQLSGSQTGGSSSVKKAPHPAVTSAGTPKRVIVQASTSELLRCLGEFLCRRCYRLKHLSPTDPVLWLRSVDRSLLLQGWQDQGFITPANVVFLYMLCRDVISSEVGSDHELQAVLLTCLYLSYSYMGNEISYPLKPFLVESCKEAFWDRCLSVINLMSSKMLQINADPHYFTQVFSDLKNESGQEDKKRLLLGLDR

Compound	CDK5/CDK7: Selectivity of CDK7 inhibition over CDK5 inhibition (CDK5)	IC50 (CDK5)	CDK2/CDK7: Selectivity of CDK7 inhibition over CDK2 inhibition (CDK2)	IC50 (CDK2)	CDK1/CDK7: Selectivity of CDK7 inhibition over CDK1 inhibition (CDK1)	IC50 (CDK1)	DC50 (CDK7 protein)	IC50 (CDK7/CycH/MNAT1)	Compound concentration that caused 50% CDK7 protein degradation in A2780 cells (DC50, nM) (CDK7 protein)
Cc1cc([C@H](C(=O)N2C[C@H](O)C[C@H]2C(=O)NCc2ccc(-c3scnc3C)cc2OCCOCCOCCNc2ccc3c(-c4ccccc4CNc4nc(O[C@@H]5CCCNC5)nc5c(C(C)C)cnn45)nccc3c2)C(C)C)on1 [Compound 27]	B (B indicates 50 < [fold] ≤ 500)	> 1000 nM	B (B indicates 50 < [fold] ≤ 500)	> 1000 nM	B (B indicates 50 < [fold] ≤ 500)	> 1000 nM	≤ 100 nM	100 to 1000 nM	
CC(C)c1cnn2c(NCc3ccccc3-c3nccc4cc(NCCOCCOCCNC(=O)CNc5ccc6c(c5)C(=O)N(C5CCC(=O)NC5=O)C6=O)ccc34)nc(O[C@@H]3CCCNC3)nc12 (stereo partly drawn) [Compound 10]	A (A indicates [fold] > 500)	> 1000 nM	A (A indicates [fold] > 500)	> 1000 nM	A (A indicates [fold] > 500)	> 1000 nM	100 to 1000 nM	≤ 100 nM	B or A
Cc1ncsc1-c1ccc([C@H](C)NC(=O)[C@@H]2C[C@@H](O)CN2C(=O)[C@@H](NC(=O)CCOCCOCCOCCNc2ccc3c(-c4ccccc4CNc4nc(O[C@@H]5CCCNC5)nc5c(C(C)C)cnn45)nccc3c2)C(C)(C)C)cc1 [Compound 28]	A (A indicates [fold] > 500)	> 1000 nM	A (A indicates [fold] > 500)	> 1000 nM	A (A indicates [fold] > 500)	> 1000 nM	≤ 100 nM	≤ 100 nM	
CC(C)c1cnn2c(NCc3ccccc3-c3nccc4cc(NCC5CCN(CC6CCN(c7ccc8c(c7)C(=O)N(C7CCC(=O)NC7=O)C8=O)CC6)CC5)ccc34)nc(N[C@@H]3CCCNC3)nc12 (stereo partly drawn) [Compound 32]	B (B indicates 50 < [fold] ≤ 500)	> 1000 nM	A (A indicates [fold] > 500)	> 1000 nM	A (A indicates [fold] > 500)	> 1000 nM	≤ 100 nM	≤ 100 nM	
Cc1ncsc1-c1ccc(CNC(=O)[C@@H]2C[C@@H](O)CN2C(=O)[C@@H](NC(=O)C2(F)CC2)C(C)(C)C)c(OCCN2CCC(N3CCC(CNc4ccc5c(-c6ccccc6CNc6nc(O[C@@H]7CCCNC7)nc7c(C(C)C)cnn67)nccc5c4)CC3)CC2)c1 [Compound 25]	A (A indicates [fold] > 500)	> 1000 nM	A (A indicates [fold] > 500)	> 1000 nM	A (A indicates [fold] > 500)	> 1000 nM	≤ 100 nM	≤ 100 nM	
Cc1ncsc1-c1ccc(CNC(=O)[C@@H]2C[C@@H](O)CN2C(=O)[C@@H](NC(=O)C2(F)CC2)C(C)(C)C)c(OCCOCCOCCOCCNc2ccc3c(-c4ccccc4CNc4nc(O[C@@H]5CCCNC5)nc5c(C(C)C)cnn45)nccc3c2)c1 [Compound 19]	A (A indicates [fold] > 500)	> 1000 nM	A (A indicates [fold] > 500)	> 1000 nM	A (A indicates [fold] > 500)	> 1000 nM	≤ 100 nM	≤ 100 nM	
CC(C)c1cnn2c(NCc3ccccc3-c3nccc4cc(NCCOCCOCCNC(=O)CNc5ccc6c(c5)CN(C5CCC(=O)NC5=O)C6=O)ccc34)nc(O[C@@H]3CCCNC3)nc12 (stereo partly drawn) [Compound 16]	A (A indicates [fold] > 500)	> 1000 nM	A (A indicates [fold] > 500)	> 1000 nM	A (A indicates [fold] > 500)	> 1000 nM	100 to 1000 nM	≤ 100 nM	B or A
CNCC(=O)N[C@H](C(=O)N1C[C@@H](Oc2cccc(OCCOCCOCCNc3ccc4c(-c5ccccc5CNc5nc(O[C@@H]6CCCNC6)nc6c(C(C)C)cnn56)nccc4c3)c2)C[C@H]1C(=O)N[C@@H]1CCCc2ccccc21)C1CCCCC1 [Compound 12]	A (A indicates [fold] > 500)	> 1000 nM	A (A indicates [fold] > 500)	> 1000 nM	A (A indicates [fold] > 500)	> 1000 nM	> 1000 nM	≤ 100 nM	
Cc1ncsc1-c1ccc(CNC(=O)[C@@H]2C[C@@H](O)CN2C(=O)[C@@H](NC(=O)C2(F)CC2)C(C)(C)C)c(OCCOCCOCCOCCOCCNc2ccc3c(-c4ccccc4CNc4nc(O[C@@H]5CCCNC5)nc5c(C(C)C)cnn45)nccc3c2)c1 [Compound 21]	A (A indicates [fold] > 500)	> 1000 nM	A (A indicates [fold] > 500)	> 1000 nM	A (A indicates [fold] > 500)	> 1000 nM	≤ 100 nM	≤ 100 nM	
CC(C)c1cnn2c(NCc3ccccc3-c3nccc4cc(NCCOCCOCCNC(=O)CNc5cccc6c5CN(C5CCC(=O)NC5=O)C6=O)ccc34)nc(O[C@@H]3CCCNC3)nc12 (stereo partly drawn) [Compound 14]	A (A indicates [fold] > 500)	> 1000 nM	A (A indicates [fold] > 500)	> 1000 nM	A (A indicates [fold] > 500)	> 1000 nM	100 to 1000 nM	≤ 100 nM	B or A
Cc1ncsc1-c1ccc(CNC(=O)[C@@H]2C[C@@H](O)CN2C(=O)[C@@H](NC(=O)C2(F)CC2)C(C)(C)C)c(OCCOCCNc2ccc3c(-c4ccccc4CNc4nc(O[C@@H]5CCCNC5)nc5c(C(C)C)cnn45)nccc3c2)c1 [Compound 20]	A (A indicates [fold] > 500)	> 1000 nM	A (A indicates [fold] > 500)	> 1000 nM	A (A indicates [fold] > 500)	> 1000 nM	≤ 100 nM	≤ 100 nM	
CC(C)c1cnn2c(NCc3ccccc3-c3nccc4cc(NCC5CCN(C6CCN(c7ccc8c(c7)C(=O)N(C7CCC(=O)NC7=O)C8=O)CC6)CC5)ccc34)nc(O[C@@H]3CCCNC3)nc12 (stereo partly drawn) [Compound 31]	B (B indicates 50 < [fold] ≤ 500)	> 1000 nM	A (A indicates [fold] > 500)	> 1000 nM	A (A indicates [fold] > 500)	> 1000 nM	≤ 100 nM	≤ 100 nM	
